# Source: paper PMC6428247, “Potent inhibitors of equine steroid isomerase EcaGST A3-3” (PLoS ONE, 2019)
# Structures can show the parent of a compound that is named as a salt. Where two headings read alike, the source gives them in different places.
# Tests used:
# [1] = target: T1, EcaGST A3-3 (Equus caballus, UniProt M9ZT87); assay: Inhibition of EcaGST A3-3 activity, GSH conjugation with CDNB; type: biochemical, Equus ferus caballus; conditions: for inhibition at 10 µM: read-out: Inhibition (%) of EcaGST A3-3; for IC50: read-out: IC50 EcaGST A3-3, substrate CDNB; for Hill coefficient, CDNB inhibition: dose-response curve, substrate CDNB, mean ± SD
# Method: The final solvent concentration in the reaction system was kept at 5% (v/v) as a maximum.
# (§1) The conjugation of GSH with the electrophilic substrate CDNB was used as a biochemical assay for general activity measurements. Screening of the US Drug library for inhibition was done in triplicates in 96-well plates in a Thermo Scientific Multiskan GO spectrophotometer. The conjugation activity at 30°C was monitored at 340 nm for 1 min in 0.1 M sodium phosphate buffer at pH 6.5 and 10 μM inhibitor concentration in a final volume of 300 μL. Initial concentrations of GSH and CDNB were 1 mM.
# Assay conditions for inhibition measurements of enzyme activity with CDNB were the following: EcaGST A3-3 15 nM, initial concentrations of GSH and CDNB 1 mM, inhibitor concentrations varying from 0.029 μM to 15 μM, in 100 mM Na2HPO4/NaH2PO4 at pH 6.5.
# The reactions were followed spectrophotometrically for 1 min at 30°C using a Shimadzu UV-2501 PC spectrophotometer (Shimadzu Inc.). All experiments included triplicate measurements in each data point.
# The equation for competitive inhibition fitted by non-linear regression was v=Vmax[S]/KM(1+[I]/Ki)+[S] where [S] is the substrate concentrations and [I] is the inhibitor concentration.
# [2] = test system: HsaGST P1-1; set-up: method as in PMID 23769903; conditions: 3.3 μM inhibitor, 1 mM GSH, 1 mM CDNB, pH 6.5, 30°C; cited from earlier work
# [3] = test system: HsaGST S1-1; set-up: method as in PMID 25603235; conditions: 1 mM GSH, 1 mM CDNB, pH 6.5, 30°C, cited from earlier work; for Inhibition (%) of HsaGST S1-1: 10 μM inhibitor; for IC50: CDNB activity
# [4] = target: T2, HsaGST A3-3 (Homo sapiens, UniProt Q16772); assay: Inhibition of HsaGST A3-3 CDNB activity; type: biochemical; conditions: 1 mM GSH, 1 mM CDNB, pH 6.5, 30°C; for IC50: CDNB activity; for inhibition at 10 µM: pH 6.5, 10 μM inhibitor, read-out: Inhibition (%) of HsaGST A3-3
# T2 construct: made in house
# T2 sequence (Q16772 1-222): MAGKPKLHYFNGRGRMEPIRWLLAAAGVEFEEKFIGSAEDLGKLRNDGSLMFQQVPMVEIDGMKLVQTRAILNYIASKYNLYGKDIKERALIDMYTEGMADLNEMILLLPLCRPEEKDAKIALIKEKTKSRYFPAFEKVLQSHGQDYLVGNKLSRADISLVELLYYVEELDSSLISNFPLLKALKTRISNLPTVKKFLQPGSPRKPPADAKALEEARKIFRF
# Method: (§2) EcaGST A3-3 [10], HsaGST A3-3 [12] and HsaGST M2-2 [13] were cloned, expressed and purified as described previously. Protein concentration was determined by means of the Bradford assay.
# as §1
# (§3) For understanding the effects of pharmacological interventions based on GST inhibitors, it is important to know the selectivity among the numerous GSTs. […] All values were determined with CDNB, which is a common substrate for all the enzymes.
# [5] = target: T1, EcaGST A3-3; assay: Inhibition of EcaGST A3-3 steroid double-bond isomerase activity with Δ^5-AD; type: biochemical, Equus ferus caballus; conditions: for Hill coefficient, Δ^5-AD inhibition: dose-response curve, substrate Δ^5-AD, mean ± SD
# [6] = target: T3, HsaGST M2-2 (Homo sapiens, UniProt P28161); assay: Inhibition of HsaGST M2-2 CDNB activity; type: biochemical; conditions: 1 mM GSH, 1 mM CDNB, pH 6.5, 30°C; for inhibition at 10 µM: 10 μM inhibitor; for IC50: CDNB activity, read-out: IC50 HsaGST M2-2
# T3 construct: made in house
# T3 sequence (P28161 1-218): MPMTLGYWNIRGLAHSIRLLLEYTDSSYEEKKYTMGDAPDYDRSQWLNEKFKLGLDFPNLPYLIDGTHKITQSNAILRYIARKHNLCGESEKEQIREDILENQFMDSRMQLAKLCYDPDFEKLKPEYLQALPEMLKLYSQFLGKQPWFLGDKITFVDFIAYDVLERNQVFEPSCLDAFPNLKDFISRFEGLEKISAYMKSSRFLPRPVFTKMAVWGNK
# Method: as §2, §1, §3
# [7] = 10 μM inhibitor, 1 mM GSH, 1 mM CDNB, sodium phosphate pH 6.5, 30°C
# [8] = 1 mM CDNB, 1 mM GSH, 100 mM sodium phosphate pH 6.5, 30°C
# [9] = 0.1 mM Δ^5-AD, 1 mM GSH, 25 mM sodium phosphate pH 8.0, 30°C
# T1 sequence (M9ZT87 entry or part of it): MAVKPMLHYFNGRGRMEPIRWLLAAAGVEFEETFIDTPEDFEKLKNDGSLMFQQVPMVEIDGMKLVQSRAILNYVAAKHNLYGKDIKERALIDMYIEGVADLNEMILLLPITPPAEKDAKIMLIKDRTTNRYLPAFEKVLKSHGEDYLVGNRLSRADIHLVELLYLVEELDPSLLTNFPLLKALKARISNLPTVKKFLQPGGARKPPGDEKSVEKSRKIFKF
smiles,measurement,setting,value
CC[C@H](C)C(=O)O[C@H]1C[C@@H](C)C=C2C=C[C@H](C)[C@H](CC[C@@H]3C[C@@H](O)CC(=O)O3)[C@H]21 [Lovastatin],inhibition at 10 µM,[1]; [7],33 ± 15%
COC(=O)Nc1nc2ccc(C(=O)c3ccccc3)cc2[nH]1 [Mebendazole],inhibition at 10 µM,[1]; [7],35 ± 15%
CC(C)NCC(O)c1cc(O)cc(O)c1 (centres unmarked) [Metaproterenol],inhibition at 10 µM,[1]; [7],42 ± 24%
COC(=O)C1=C(C)NC(C)=C(C(=O)OCC(C)C)C1c1ccccc1[N+](=O)[O-] (centres unmarked) [Nisoldipine],inhibition at 10 µM,[1]; [7],75 ± 2.3%
same,"IC50 EcaGST A3-3, substrate CDNB",[1]; [8],Anomalous curve
same,Inhibition (%) of HsaGST P1-1,[2],14%
same,Inhibition (%) of HsaGST S1-1,[3],42%
same,IC50,[3],29 µM
same,IC50,[4],4.1 µM
same,inhibition at 10 µM,[4],70%
same,"IC50 EcaGST A3-3, substrate Δ^5-AD",[5]; [9],Anomalous curve
same,inhibition at 10 µM,[6]; read-out: Inhibition (%) of HsaGST M2-2,35%
CN1CCCN=C1/C=C/c1cccc(O)c1 [Oxantel pamoate],IC50,[6],1.7 µM
CCc1ccc(CCOc2ccc(CC3SC(=O)NC3=O)cc2)nc1 (centres unmarked) [Pioglitazone],IC50,[6],5.9 µM
Nc1ccc(C(=O)[O-])cc1.[K+] [Potassium p-aminobenzoate],Inhibition (%) of EcaGST A3-3,[1]; [7],30±16%
CN1CCCN=C1/C=C/c1cccs1 [Pyrantel pamoate],IC50,[6],1.4 µM
Cc1cc(/C=C/c2ccc3cc(N(C)C)ccc3[n+]2C)c(C)n1-c1ccccc1 [Pyrvinium pamoate],IC50,[6],1.2 µM
C[n+]1cc2c3c(ccc2c2ccc4cc5c(cc4c21)OCO5)OCO3 [Sanguinarine sulfate],inhibition at 10 µM,[1]; [7],47 ± 19%
O=C(O)c1cc(O)c2c(c1)[C@H]([C@H]1c3cc(C(=O)O)cc(O)c3C(=O)c3c(O[C@@H]4O[C@H](CO)[C@@H](O)[C@H](O)[C@H]4O)cccc31)c1cccc(O[C@@H]3O[C@H](CO)[C@@H](O)[C@H](O)[C@H]3O)c1C2=O [Sennoside A],inhibition at 10 µM,[1]; [7],100%
same,IC50,[1]; [8],2.8 ± 0.28 µM
same,"Hill coefficient, CDNB inhibition",[1],2.2±0.41
same,Inhibition (%) of HsaGST P1-1,[2],< 4%
same,Inhibition (%) of HsaGST S1-1,[3],30%
same,IC50,[3],39 µM
same,IC50,[4],0.98 µM
same,inhibition at 10 µM,[4],90%
same,IC50,[5],0.11 ± 0.0082 µM
same,"IC50 EcaGST A3-3, substrate Δ^5-AD",[5]; [9],submicromolar range
same,"Hill coefficient, Δ^5-AD inhibition",[5],2.1±0.29
same,Times more potent with Δ^5-AD as substrate than with CDNB,"[5]; ratio of IC50 values CDNB vs Δ^5-AD, EcaGST A3-3",approximately 25 times
same,inhibition at 10 µM,[6]; read-out: Inhibition (%) of HsaGST M2-2 (symbol),< 30%
O=C(O)c1cc(/N=N/c2ccc(S(=O)(=O)Nc3ccccn3)cc2)ccc1O [Sulfasalazine],inhibition at 10 µM,[1]; [7],≤ 30%
same,IC50,[6],0.3 µM
CC1=C(CC(=O)O)c2cc(F)ccc2/C1=C\c1ccc([S+](C)[O-])cc1 (centres unmarked) [Sulindac],IC50,[6],23 µM
Cc1ccc(C(=O)Nc2ccc(S(=O)(=O)O)c3cc(S(=O)(=O)O)cc(S(=O)(=O)O)c23)cc1NC(=O)c1cccc(NC(=O)Nc2cccc(C(=O)Nc3cc(C(=O)Nc4ccc(S(=O)(=O)O)c5cc(S(=O)(=O)O)cc(S(=O)(=O)O)c45)ccc3C)c2)c1 [Suramin],inhibition at 10 µM,[1]; [7],≤ 30%
same,IC50,[3],0.3 µM
same,IC50,[6],0.62 µM
O=C(OCC1OC(OC(=O)c2cc(O)c(O)c(OC(=O)c3cc(O)c(O)c(O)c3)c2)C(OC(=O)c2cc(O)c(O)c(OC(=O)c3cc(O)c(O)c(O)c3)c2)C(OC(=O)c2cc(O)c(O)c(OC(=O)c3cc(O)c(O)c(O)c3)c2)C1OC(=O)c1cc(O)c(O)c(OC(=O)c2cc(O)c(O)c(O)c2)c1)c1cc(O)c(O)c(OC(=O)c2cc(O)c(O)c(O)c2)c1 (centres unmarked) [Tannic acid],IC50,[1]; [8],0.33 ± 0.018 µM
same,"Hill coefficient, CDNB inhibition",[1],2.2±0.23
same,Inhibition (%) of HsaGST P1-1,[2],< 4%
same,Inhibition (%) of HsaGST S1-1,[3],100%
same,IC50,[3],0.35 µM
same,IC50,[4],0.21 µM
same,"IC50 EcaGST A3-3, substrate Δ^5-AD",[5]; [9],submicromolar range
same,"Hill coefficient, Δ^5-AD inhibition",[5],2.1±0.63
same,IC50,"[5]; read-out: IC50 EcaGST A3-3, substrate Δ^5-AD, 0.1 mM Δ^5-AD, 1 mM GSH, 25 mM sodium phosphate pH 8.0, 30°C",0.22 ± 0.034 µM
same,IC50,[6],1.2 µM
